The results in this text go back to paper PMC7765920 (Molecules, 2020).

What all share (assay type): biochemical
Assay [1] addresses T1, GST-CLK1cat (amino acids 141–484 of human CLK1) (Homo sapiens, UniProt P49759).
T1 construct: containing amino acids 141–484 of human CLK1; made in house; host or cells: E. coli
In words: Kinase-GLO luminescent assay of CLK1 catalytic activity. The following applies: for remaining activity at 1 µM: read-out: CLK1 residual activity. As to the method:
(§1) Optimization of the compounds, however, aimed predominantly at elimination of MAO-A-inhibitory activity while keeping DYRK1A inhibitory potency, and not at achieving high selectivity for DYRK1A over CLK1. The tests were performed as described by us before in detail. Due to the very large number of test compounds (more than 60), a first screening was performed at a single inhibitor concentration of 1 µM.
(§2) Inhibitors were dissolved in DMSO at a concentration of 10 mM and stored at […]. Working solutions were prepared to achieve a final concentration of 1 µM in the enzyme assays.
(§3) Recombinant kinases were purified from E. coli as GST (glutathione S-transferase) fusion constructs by affinity adsorption to glutathione-Sepharose. […] Catalytic activity of the kinases was measured with the help of the Kinase-GLO^TM Luminescent Assay from Promega. Assays were performed in a total volume of 10 μL in kinase buffer (25 mM Hepes pH 7.4, 0.5 mM DTT, 5 mM MgCl2, 5 μM ATP) with appropriate peptide substrates (20 μM DYRKtide for the DYRKs and 100 μM DYRKtide for HIPK2, […]; or 100 μM RS peptide for CLK1, […]). Kinases amounts in the assays were adjusted so that approximately 90% of the ATP in the assay was consumed in control samples without inhibitor. Kinase reactions were incubated at room temperature for 30 min before 10 μL Kinase-GLO reagent was added for luminometric measurement of the ATP that was not consumed by the kinases. After incubation at room temperature for an additional 10 min, luminescence was recorded for 1 s (Berthold Orion Microplate Luminometer). ATP consumption in the control samples without inhibitor was set as 100% catalytic activity, and the inhibitory effects of the test compounds were calculated relative to this value.
(In general: Kinase-Glo reads ATP consumption through a luciferase reaction.)

A further assay concerns the target T2, human recombinant MAO-A (Homo sapiens, UniProt P21397).
T2 sequence (P21397 1-527): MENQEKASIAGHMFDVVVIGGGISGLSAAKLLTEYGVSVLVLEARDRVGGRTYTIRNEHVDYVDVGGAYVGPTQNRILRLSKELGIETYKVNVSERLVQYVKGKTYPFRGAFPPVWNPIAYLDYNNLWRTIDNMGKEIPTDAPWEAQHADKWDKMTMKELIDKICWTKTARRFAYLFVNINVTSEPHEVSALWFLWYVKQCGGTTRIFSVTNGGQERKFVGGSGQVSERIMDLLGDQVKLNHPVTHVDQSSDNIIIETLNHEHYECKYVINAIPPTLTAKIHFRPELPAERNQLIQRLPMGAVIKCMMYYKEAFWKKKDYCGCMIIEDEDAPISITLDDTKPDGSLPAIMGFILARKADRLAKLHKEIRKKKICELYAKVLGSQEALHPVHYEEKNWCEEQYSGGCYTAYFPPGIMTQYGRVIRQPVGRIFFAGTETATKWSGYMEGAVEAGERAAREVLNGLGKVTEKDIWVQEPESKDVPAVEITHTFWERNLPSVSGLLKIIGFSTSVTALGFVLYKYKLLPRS
Description: MAO-GLO luminescence assay of MAO-A catalytic activity. The following applies: for remaining activity at 1 µM: read-out: MAO-A residual activity. As to the method: as §1, §2
Catalytic activity of monoamine oxidase A (MAO-A) was measured by using the luminescence-based MAO-GLO^TM Assay from Promega. Recombinant MAO-A converts a luminogenic MAO substrate into luciferin, which is, in turn, luminometrically detected in a luciferase reaction. The amount of light produced is directly proportional to MAO activity. […] Inhibitory effects of the tested compounds were calculated relative to the activity of control reactions that were run in the absence of inhibitors.

Assay [2] has as its target T3, GST-DYRK1A-ΔC (amino acids 1–499 of rat DYRK1A) (Rattus norvegicus, UniProt Q63470).
T3 construct: containing amino acids 1–499 of rat DYRK1A; made in house; host or cells: E. coli
Description: Kinase-GLO luminescent assay of DYRK1A catalytic activity. Conditions: for remaining activity at 1 µM: read-out: DYRK1A residual activity. As to the method:
as §1, §2, §3

The mark [3] stands for this setting: 1 µM inhibitor concentration, residual activity relative to control without inhibitor.

Like-named read-outs stand apart in the source and are kept apart here. Marks after values point to notes of the source that are not given here.

T1 sequence (P49759 141-484): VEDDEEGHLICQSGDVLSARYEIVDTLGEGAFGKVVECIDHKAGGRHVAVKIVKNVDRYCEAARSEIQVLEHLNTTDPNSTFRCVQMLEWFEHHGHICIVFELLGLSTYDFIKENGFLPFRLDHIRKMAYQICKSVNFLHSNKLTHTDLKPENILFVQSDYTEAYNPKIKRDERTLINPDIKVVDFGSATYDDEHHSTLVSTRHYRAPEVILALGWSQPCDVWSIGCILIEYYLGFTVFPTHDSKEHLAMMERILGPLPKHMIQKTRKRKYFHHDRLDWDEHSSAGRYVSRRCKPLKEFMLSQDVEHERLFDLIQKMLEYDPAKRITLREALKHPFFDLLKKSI

“7-Methoxy-1-methyl-9-(prop-2-yn-1-yl)-9H-pyrido[3,4-b]indole [AnnH70]”: the CLK1 residual activity in assay [1] (setting [3]) is 17 *** %. In addition, the MAO-A residual activity on human recombinant MAO-A (setting [3]) is given as 18%. In assay [2] (setting [3]), this compound gave a DYRK1A residual activity of 6%.

For `COc1ccc2c(c1)C(O)c1c-2ccnc1C` (racemic) [AnnHT3, (±)-7-Methoxy-1-methyl-9H-indeno-[2,1-c]pyridin-9-ol], the remaining activity at 1 µM in assay [1] (setting [3]) was 76%; at human recombinant MAO-A (setting [3]), 34%; in assay [2] (setting [3]), 59%.

Turning to `COc1ccc2c3ccnc(C)c3n(C)c2c1` [AnnH1], the figures for the remaining activity at 1 µM (in assay [1] (setting [3]); at human recombinant MAO-A (setting [3])) were 6% and 2%, respectively.

Take `CCCCn1c2cc(OC)ccc2c2ccnc(C)c21` [AnnH3, 9-Butyl-7-methoxy-1-methyl-9H-pyrido[3,4-b]indole]: the remaining activity at 1 µM came out at 24% in assay [1] (setting [3]) and 10% at human recombinant MAO-A (setting [3]).

Turning to `COc1ccc2c3ccnc(C)c3n(Cc3ccccc3)c2c1` [AnnH4, 9-Benzyl-7-methoxy-1-methyl-9H-pyrido[3,4-b]indole], the figures for the remaining activity at 1 µM (on human recombinant MAO-A (setting [3]); in assay [2] (setting [3])) were 80% and 88%, respectively.

Regarding `COc1c(Br)cc2c([nH]c3c(C)nccc32)c1Br` [AnnH5_1], the results for the remaining activity at 1 µM (on human recombinant MAO-A (setting [3]); in assay [2] (setting [3])) were 70% and 101%, respectively.

Regarding `COc1cc2[nH]c3c(C)nccc3c2cc1Br` [AnnH5_2], the remaining activity at 1 µM on human recombinant MAO-A (setting [3]) came out at 7%; in assay [2] (setting [3]), 88%.

For `COc1ccc2c([nH]c3c(C)nccc32)c1Br` [AnnH5_3, 8-bromo-7-methoxy-1-methyl-9H-pyrido[3,4-b]indole], the remaining activity at 1 µM on human recombinant MAO-A (setting [3]) came out at 8%; in assay [2] (setting [3]), 95%.

Regarding `COc1c(Br)cc2c([nH]c3c(C)nc(Br)cc32)c1Br` [AnnH5_4, 3,6,8-tribromoharmine], in assay [2] (setting [3]), the remaining activity at 1 µM came to 126%.

As to `COc1ccc2c([nH]c3c(C)nccc32)c1Cl` [AnnH6_1, 8-chloro-7-methoxy-1-methyl-9H-pyrido[3,4-b]indole], the remaining activity at 1 µM at human recombinant MAO-A (setting [3]) was 16%; in assay [2] (setting [3]), 97%.

With `COc1c(Cl)cc2c([nH]c3c(C)nccc32)c1Cl` [AnnH6_3_1], the remaining activity at 1 µM on human recombinant MAO-A (setting [3]) was determined as 64%; in assay [2] (setting [3]), 99%.

Take `COc1cc2[nH]c3c(C)nccc3c2cc1Cl` [AnnH6_3_2, 6-chloro-7-methoxy-1-methyl-9H-pyrido[3,4-b]indole]: the remaining activity at 1 µM on human recombinant MAO-A (setting [3]) was 9%; in assay [2] (setting [3]), 92%.

For `CCCCn1c2c(C)nccc2c2ccc(OC)c(Br)c21` [AnnH9, 8-Bromo-9-butyl-7-methoxy-1-methyl-9H-pyrido[3,4-b]indole], the remaining activity at 1 µM worked out at 8% on human recombinant MAO-A (setting [3]) and 96% in assay [2] (setting [3]).

Turning to `CCCCn1c2c(C)nccc2c2ccc(OC)c(Cl)c21` [AnnH11, 9-Butyl-8-chloro-7-methoxy-1-methyl-9H-pyrido[3,4-b]indole], the results for the remaining activity at 1 µM (in assay [1] (setting [3]); on human recombinant MAO-A (setting [3]); in assay [2] (setting [3])) were 60%, 4% and 104%, respectively.

On to `CCOC(=O)Cn1c2cc(OC)ccc2c2ccnc(C)c21` [AnnH12, Ethyl 2-(7-methoxy-1-methyl-9H-pyrido[3,4-b]indol-9-yl)acetate], for which the remaining activity at 1 µM in assay [1] (setting [3]) stood at 45%; at human recombinant MAO-A (setting [3]), 101%; in assay [2] (setting [3]) it was 30%.

As to `CCCCn1c2cc(OC)c(Cl)cc2c2ccnc(C)c21` [AnnH14, 9-Butyl-6-chloro-7-methoxy-1-methyl-9H-pyrido[3,4-b]indole], the values for the remaining activity at 1 µM (in assay [1] (setting [3]); at human recombinant MAO-A (setting [3]); in assay [2] (setting [3])) were 62%, 56% and 94%, respectively.

Consider `COc1ccc2c3ccnc(C)c3n(CCN(C)C)c2c1` [AnnH16, [2-(7-Methoxy-1-methyl-9H-pyrido[3,4-b]indol-9-yl)-ethyl]-dimethylamine], for which the remaining activity at 1 µM was found to be 103% at human recombinant MAO-A (setting [3]) and 107% in assay [2] (setting [3]).

`COc1ccc2c(c1)[nH]c1c(/C=C/c3ccccc3)nccc12` [AnnH18]: the remaining activity at 1 µM in assay [1] (setting [3]) worked out at 58%; on human recombinant MAO-A (setting [3]), 100%; in assay [2] (setting [3]), 27%.

In the case of `COc1ccc2c3c([nH]c2c1)C(=O)NCC3` [AnnH19, 7-methoxy-2,3,4,9-tetrahydro-1H-pyrido[3,4-b]indol-1-one], the remaining activity at 1 µM is more than 90% in assay [1] (setting [3]) and 122% in assay [2] (setting [3]).

`COc1ccc2c(c1)[nH]c1c(=O)[nH]ccc12` [AnnH20, 7-Methoxy-2,9-dihydro-1H-pyrido[3,4-b]indol-1-one]: the remaining activity at 1 µM at human recombinant MAO-A was determined as 127%.

Consider `COc1ccc2c3ccnc(C)c3n(C/C=C/c3ccccc3)c2c1` [AnnH22, 7-Methoxy-1-methyl-9-((E)-3-phenylallyl)-9H-pyrido[3,4-b]indole], for which the remaining activity at 1 µM is 15% in assay [1] (setting [3]), 39% on human recombinant MAO-A (setting [3]) and 3% in assay [2] (setting [3]).

With `COc1ccc2c(c1)[nH]c1c(Cl)nccc12` [AnnH24, 1-chloro-7-methoxy-9H-pyrido[3,4-b]indole], the remaining activity at 1 µM in assay [1] (setting [3]) was 17%; at human recombinant MAO-A it was 103%.

Take `COc1ccc2c3ccnc(C)c3n(CC(=O)O)c2c1` [AnnH25, 2-(7-Methoxy-1-methyl-9H-pyrido[3,4-b]indol-9-yl)acetic acid]: the remaining activity at 1 µM in assay [1] (setting [3]) was 34%; at human recombinant MAO-A (setting [3]) it was 6%.

As to `COc1ccc2c3ccnc(C)c3n(CC(=O)OC(C)C)c2c1` [AnnH27, Isopropyl 2-(7-methoxy-1-methyl-9H-pyrido[3,4-b]indol-9-yl)acetate], the values for the remaining activity at 1 µM (in assay [1] (setting [3]); on human recombinant MAO-A (setting [3]); in assay [2] (setting [3])) were 79%, 72% and 4%, respectively.

For the compound `COc1ccc2c3ccnc(C)c3n(CC(N)=O)c2c1` [AnnH28, 2-(7-Methoxy-1-methyl-9H-pyrido[3,4-b]indol-9-yl)-N-acetamide], the remaining activity at 1 µM is 89% in assay [1] (setting [3]) and 131% on human recombinant MAO-A (setting [3]).

As to `CNC(=O)Cn1c2cc(OC)ccc2c2ccnc(C)c21` [AnnH30, 2-(7-Methoxy-1-methyl-9H-pyrido[3,4-b]indol-9-yl)-N-methylacetamide], the remaining activity at 1 µM in assay [1] (setting [3]) was 87%; at human recombinant MAO-A (setting [3]) it was 24%; in assay [2] (setting [3]), 64%.

On to `CCOC(=O)CCn1c2cc(OC)ccc2c2ccnc(C)c21` [AnnH32, Ethyl 3-(7-Methoxy-1-methyl-9H-pyrido[3,4-b]indol-9-yl)propanoate], for which the remaining activity at 1 µM is 44% in assay [1], 105% on human recombinant MAO-A and 12% in assay [2].

Take `COc1ccc2c3ccnc(C)c3n(CC(=O)N(C)C)c2c1` [AnnH34, 2-(7-Methoxy-1-methyl-9H-pyrido[3,4-b]indol-9-yl)-N,N-dimethylacetamide]: the remaining activity at 1 µM in assay [1] (setting [3]) is 78%; on human recombinant MAO-A (setting [3]) it was 130%; in assay [2] (setting [3]), 75%.

Take `COc1ccc(Cn2c3cc(OC)ccc3c3ccnc(C)c32)cc1` [AnnH35, 7-Methoxy-9-(4-methoxybenzyl)-1-methyl-9H-pyrido[3,4-b]indole]: the remaining activity at 1 µM in assay [1] (setting [3]) amounted to 80%; on human recombinant MAO-A (setting [3]), 128%; in assay [2] (setting [3]) it was 100%.

For `Cc1nccc2c1[nH]c1ccccc12` [harmane, reference compound], the remaining activity at 1 µM came out at 18% at human recombinant MAO-A and 97% in assay [2].
